Literature values as cited in patent US10842782B2, “Storage stable composition comprising rifaximin alpha” (Sandoz AG, priority 2016, dated 2020).

Settings: single 400 mg dose

AUC	Cmax	SMILES
830 ng·h/mL	308.3 ng/mL	CO[C@H]1/C=C/O[C@@]2(C)Oc3c(C)c(O)c4c(O)c(c5c(nc6cc(C)ccn65)c4c3C2=O)NC(=O)/C(C)=C\C=C\[C@H](C)[C@H](O)[C@@H](C)[C@@H](O)[C@@H](C)[C@H](OC(C)=O)[C@@H]1C [Delta, (2S,16Z,18E,20S,21S,22R,23R,24R,25S,26S,27S,28E)-5,6,21,23,25-pentahydroxy-27-methoxy-2,4,11,16,20,22,24,26-octamethyl-2,7-(epoxypentadeca[1,11,13]trienimino) benzofuro[4,5-e]pyrido[1,2-a]-benzimidazole-1,15(2H)-dione,25-acetate]
17 ng·h/mL	2.6 ng/mL	CO[C@H]1/C=C/O[C@@]2(C)Oc3c(C)c(O)c4c(O)c(c5c(nc6cc(C)ccn65)c4c3C2=O)NC(=O)/C(C)=C\C=C\[C@H](C)[C@H](O)[C@@H](C)[C@@H](O)[C@@H](C)[C@H](OC(C)=O)[C@@H]1C [Alpha, (2S,16Z,18E,20S,21S,22R,23R,24R,25S,26S,27S,28E)-5,6,21,23,25-pentahydroxy-27-methoxy-2,4,11,16,20,22,24,26-octamethyl-2,7-(epoxypentadeca[1,11,13]trienimino) benzofuro[4,5-e]pyrido[1,2-a]-benzimidazole-1,15(2H)-dione,25-acetate]
